Laboratory results taken from the Kinase Knowledgebase extract (Sharma et al. 2016).

Tests used:
MAPK14 (human) [1] = biological target: MAPK14 (human) (UniProt Q16539); assay: Inhibition of MAPK14 Kinase Activity by PHAS-I Assay; conditions: for inhibition: concentration not given here
MAPK14 (human) [2] = biological target: MAPK14 (human) (UniProt Q16539); assay: Inhibition of LPS Stimulated TNF Production by U937 Cells; conditions: for inhibition: concentration not given here

MAPK14 (human), sequence (Q16539 whole entry, looked up): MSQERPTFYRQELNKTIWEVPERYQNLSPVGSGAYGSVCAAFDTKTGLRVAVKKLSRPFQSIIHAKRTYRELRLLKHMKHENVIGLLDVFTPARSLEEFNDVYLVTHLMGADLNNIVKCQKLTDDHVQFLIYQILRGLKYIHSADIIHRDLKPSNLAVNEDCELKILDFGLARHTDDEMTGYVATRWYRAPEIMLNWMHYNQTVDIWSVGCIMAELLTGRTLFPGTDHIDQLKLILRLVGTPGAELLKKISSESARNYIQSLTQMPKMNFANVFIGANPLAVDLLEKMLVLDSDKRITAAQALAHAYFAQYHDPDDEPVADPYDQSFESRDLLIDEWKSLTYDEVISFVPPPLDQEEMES

Row | SMILES | inhibition (MAPK14 (human) [1]) [%] | IC50 (MAPK14 (human) [2]) [nM] | inhibition (MAPK14 (human) [2]) [%] | IC50 (MAPK14 (human) [1]) [nM]
1 | CCOC(=O)CC[C@H](NC(=O)Cn1nc(-c2ccc(F)cc2)c(-c2ccncc2)c1C)C(=O)OCC | 45 | > 10000 |  | 
2 | O=C(NCCc1[nH]nc(-c2ccc(F)cc2)c1-c1ccncc1)c1ccc(I)cc1 | 58 |  | 33 | 
3 | O=C(NCCc1[nH]nc(-c2ccc(F)cc2)c1-c1ccncc1)Nc1ccccc1OC(F)(F)F | 66 |  | 48 | 
4 | Cc1c(-c2ccncc2)c(-c2ccc(F)cc2)nn1CC(=O)N(CC(C)C)CC(C)C | 55 | > 10000 |  | 
5 | O=C(NCCc1[nH]nc(-c2ccc(F)cc2)c1-c1ccncc1)c1cccnc1 | 58 |  | 23 | 
6 | COC(=O)[C@@H]1CCCN1C(=O)Cn1nc(-c2ccc(F)cc2)c(-c2ccncc2)c1C | 60 |  | 39 | 
7 | C[C@H](NC(=O)Nc1ccccc1F)c1[nH]nc(-c2ccc(F)cc2)c1-c1ccncc1 |  |  | 38 | 6840
8 | CCCS(=O)(=O)NCCc1[nH]nc(-c2ccc(F)cc2)c1-c1ccncc1 | 82 |  | 35 | 
9 | COc1ccc(OC)c(NC(=O)NCCc2[nH]nc(-c3ccc(F)cc3)c2-c2ccncc2)c1 | 76 | 880 |  | 
10 | C[C@@H](NS(=O)(=O)c1cc(Cl)cc(Cl)c1O)c1[nH]nc(-c2ccc(F)cc2)c1-c1ccncc1 |  |  | 71 | 1110
11 | CSc1cccc(NC(=O)NCCc2[nH]nc(-c3ccc(F)cc3)c2-c2ccncc2)c1 | 47 |  | 37 | 
12 | O=C(Cc1cccs1)NCCc1[nH]nc(-c2ccc(F)cc2)c1-c1ccncc1 | 68 |  | 41 | 
13 | CCOC(=O)NC(=O)NCc1[nH]nc(-c2ccc(F)cc2)c1-c1ccncc1 | 51 |  | 24 | 
14 | CCN(CC)CCN(Cc1ccc(Cl)cc1)C(=O)Cn1nc(-c2ccc(F)cc2)c(-c2ccncc2)c1C | 55 |  | 10 | 
15 | CCN(CC)C(=O)Cn1nc(-c2ccc(F)cc2)c(-c2ccncc2)c1C | 54 |  | 36 | 
16 | O=C(NCCc1[nH]nc(-c2ccc(F)cc2)c1-c1ccncc1)Nc1ccc(Br)cc1 | 51 |  | 29 | 
17 | O=S(=O)(Cc1ccccc1)NCCc1[nH]nc(-c2ccc(F)cc2)c1-c1ccncc1 | 96 |  | 58 | 
18 | COc1ccc(CC(=O)NCCc2[nH]nc(-c3ccc(F)cc3)c2-c2ccncc2)cc1 | 55 |  | 42 | 
19 | O=C(NCCCc1[nH]nc(-c2ccc(F)cc2)c1-c1ccncc1)NCCc1cccnc1 |  |  | 18 | 71

Row | SMILES | inhibition (MAPK14 (human) [1]) [%] | IC50 (MAPK14 (human) [2]) [nM] | inhibition (MAPK14 (human) [2]) [%] | IC50 (MAPK14 (human) [1]) [nM]
20 | Cc1c(-c2ccncc2)c(-c2ccc(F)cc2)nn1CC(=O)N(C)CC(=O)N(C)C | 40 |  | 31 | 
21 | CC1(C)[C@@H]2CC[C@]1(CS(=O)(=O)NCCc1[nH]nc(-c3ccc(F)cc3)c1-c1ccncc1)C(=O)C2 |  |  | 44 | 160
22 | O=C(NCCc1[nH]nc(-c2ccc(F)cc2)c1-c1ccncc1)c1ccc(F)c(F)c1F | 69 |  | 22 | 
23 | COc1ccc(C2OCCN2C(=O)Cn2nc(-c3ccc(F)cc3)c(-c3ccncc3)c2C)cc1OC (stereo unspecified) | 69 |  | 18 | 
24 | COC(=O)C(=O)NCc1[nH]nc(-c2ccc(F)cc2)c1-c1ccncc1 | 89 |  | 79 | 
25 | COc1ccc(Cl)cc1S(=O)(=O)NCCCc1[nH]nc(-c2ccc(F)cc2)c1-c1ccncc1 |  |  | 64 | < 100
26 | Cc1c(-c2ccncc2)c(-c2ccc(F)cc2)nn1CC(=O)Nc1ccccc1Sc1ccc([N+](=O)[O-])cn1 | 90 |  | 18 | 
27 | Cc1c(-c2ccncc2)c(-c2ccc(F)cc2)nn1CC(=O)N(C)CCCC1c2ccccc2CCc2ccccc21 | 50 | > 10000 |  | 
28 | CS(=O)(=O)NCCc1[nH]nc(-c2ccc(F)cc2)c1-c1ccncc1 | 89 |  | 57 | 
29 | Cc1c(-c2ccncc2)c(-c2ccc(F)cc2)nn1CC(=O)N1CCCCC1C[C@@H]1CCCN1C (stereo partly specified) | 42 |  | 24 | 
30 | CCCCCCCCOc1cccc(NC(=O)Cn2nc(-c3ccc(F)cc3)c(-c3ccncc3)c2C)c1 | 86 | > 10000 |  | 
31 | O=C(NCCc1[nH]nc(-c2ccc(F)cc2)c1-c1ccncc1)c1ccncc1 | 69 |  | 38 | 
32 | CC(C)c1ccccc1NC(=O)NCCc1[nH]nc(-c2ccc(F)cc2)c1-c1ccncc1 | 80 |  | 29 | 
33 | COC(=O)C1CN1C(=O)Cn1nc(-c2ccc(F)cc2)c(-c2ccncc2)c1C (stereo unspecified) | 45 |  | 24 | 
34 | C[C@@H](NS(=O)(=O)c1ccccc1C(=O)O)c1[nH]nc(-c2ccc(F)cc2)c1-c1ccncc1 |  |  | 59 | 580
35 | O=C(NCCc1[nH]nc(-c2ccc(F)cc2)c1-c1ccncc1)[C@H]1CCCN1 | 89 |  | 63 | 
36 | CN1CCN(CCCNC(=O)NCCCc2[nH]nc(-c3ccc(F)cc3)c2-c2ccncc2)CC1 |  | > 1000 |  | 91
37 | Cc1c(-c2ccncc2)c(-c2ccc(F)cc2)nn1CC(=O)N1CCCCC1CCN1CCCCC1 (stereo unspecified) | 26 |  | 13 | 
38 | O=C(NCc1[nH]nc(-c2ccc(F)cc2)c1-c1ccncc1)c1cccc(CCl)c1 | 83 |  | 21 | 

Now from value to compound:

Row | inhibition (MAPK14 (human) [1]) [%] | IC50 (MAPK14 (human) [2]) [nM] | inhibition (MAPK14 (human) [2]) [%] | IC50 (MAPK14 (human) [1]) [nM] | SMILES
39 |  |  | 70 | 760 | C[C@H](NS(=O)(=O)c1ccccc1C(=O)O)c1[nH]nc(-c2ccc(F)cc2)c1-c1ccncc1
40 | 53 |  | 14 |  | COc1ccccc1C(=O)NCCc1[nH]nc(-c2ccc(F)cc2)c1-c1ccncc1
41 | 61 |  | 39 |  | O=C(NCCc1[nH]nc(-c2ccc(F)cc2)c1-c1ccncc1)Nc1cc(Cl)ccc1Cl
42 | 32 | > 10000 |  |  | CCN1CCC(N(CC)C(=O)Cn2nc(-c3ccc(F)cc3)c(-c3ccncc3)c2C)C1 (stereo unspecified)
43 |  |  | 45 | 62 | C[C@H](NC(=O)c1cc(F)cc(F)c1)c1[nH]nc(-c2ccc(F)cc2)c1-c1ccncc1
44 | 77 |  | 1 |  | CCOC(=O)[C@H](Cc1ccccc1)NC(=O)Cn1nc(-c2ccc(F)cc2)c(-c2ccncc2)c1C
45 |  |  | 96 | 25 | Cc1cccc(S(=O)(=O)N[C@H](C)c2[nH]nc(-c3ccc(F)cc3)c2-c2ccncc2)c1
46 | 79 | 590 |  |  | C=CCOC(=O)NCCCc1[nH]nc(-c2ccc(F)cc2)c1-c1ccncc1
47 | 61 |  | 24 |  | COc1ccc(CC(=O)NCCc2[nH]nc(-c3ccc(F)cc3)c2-c2ccncc2)cc1OC
48 | 98 |  | 52 |  | CC(=O)Oc1cccc(C(=O)NCc2[nH]nc(-c3ccc(F)cc3)c2-c2ccncc2)c1
49 | 70 |  | 71 |  | CC(=O)OC(C)(C)C(=O)NCCc1[nH]nc(-c2ccc(F)cc2)c1-c1ccncc1
50 | 57 |  | 47 |  | Cc1cc(C)c(NC(=O)NCCc2[nH]nc(-c3ccc(F)cc3)c2-c2ccncc2)c(C)c1
51 | 65 |  | 9 |  | C[C@@H](NC(=O)NCCCc1[nH]nc(-c2ccc(F)cc2)c1-c1ccncc1)c1ccccc1
52 | 50 |  | 32 |  | O=S(=O)(NCc1[nH]nc(-c2ccc(F)cc2)c1-c1ccncc1)c1cc2nnoc2c2ccccc12
53 | 58 |  | 36 |  | COC(=O)[C@H](CCSC)NC(=O)Cn1nc(-c2ccc(F)cc2)c(-c2ccncc2)c1C
54 |  |  | 8 | 3280 | CNC(=O)CC[C@H](NC(=O)c1ccc(I)cc1)c1[nH]nc(-c2ccc(F)cc2)c1-c1ccncc1
55 | 89 |  | 7 |  | Cc1cccc(OC(=O)c2ccc(NC(=O)Cn3nc(-c4ccc(F)cc4)c(-c4ccncc4)c3C)cc2)c1
56 |  |  | 69 | 250 | C[C@H](NS(=O)(=O)c1ccccc1C#N)c1[nH]nc(-c2ccc(F)cc2)c1-c1ccncc1

Row | inhibition (MAPK14 (human) [1]) [%] | IC50 (MAPK14 (human) [2]) [nM] | inhibition (MAPK14 (human) [2]) [%] | IC50 (MAPK14 (human) [1]) [nM] | SMILES
57 | 47 |  | 2 |  | O=[N+]([O-])c1ccc(S(=O)(=O)NCc2[nH]nc(-c3ccc(F)cc3)c2-c2ccncc2)cc1
58 |  |  | 60 | 160 | C[C@H](NS(=O)(=O)C[C@@]12CC[C@H](CC1=O)C2(C)C)c1[nH]nc(-c2ccc(F)cc2)c1-c1ccncc1
59 | 66 | 990 |  |  | O=C(NCCCc1[nH]nc(-c2ccc(F)cc2)c1-c1ccncc1)C1CCC1
60 | 70 | 1160 |  |  | COc1ccc(CC(=O)NCCCc2[nH]nc(-c3ccc(F)cc3)c2-c2ccncc2)cc1
61 | 67 |  | 65 |  | CCNC(=O)NCCc1[nH]nc(-c2ccc(F)cc2)c1-c1ccncc1
62 | 54 |  | 27 |  | O=C(NCCc1[nH]nc(-c2ccc(F)cc2)c1-c1ccncc1)c1ccccc1C(F)(F)F
63 | 82 |  | 2 |  | CCOC(=O)c1cccc(NC(=O)NCCc2[nH]nc(-c3ccc(F)cc3)c2-c2ccncc2)c1
64 | 48 |  | 4 |  | O=C(NCCc1[nH]nc(-c2ccc(F)cc2)c1-c1ccncc1)Nc1ccc(OC(F)(F)F)cc1
65 | 58 |  | 10 |  | O=S(=O)(/C=C/c1ccccc1)NCCc1[nH]nc(-c2ccc(F)cc2)c1-c1ccncc1
66 | 79 |  | 23 |  | O=C(NCCc1[nH]nc(-c2ccc(F)cc2)c1-c1ccncc1)Nc1ccc(Cl)c(Cl)c1
67 |  |  | 34 | 540 | O=C(N[C@H](Cc1ccccc1)c1[nH]nc(-c2ccc(F)cc2)c1-c1ccncc1)c1ccccc1I
68 | 79 |  | 36 |  | CCOC(=O)C(NC(=O)NCCc1[nH]nc(-c2ccc(F)cc2)c1-c1ccncc1)C(C)C (stereo unspecified)
69 | 57 |  | 73 |  | CC(=O)O[C@@H](C)C(=O)NCCc1[nH]nc(-c2ccc(F)cc2)c1-c1ccncc1
70 |  |  | 75 | < 100 | N#Cc1ccc(S(=O)(=O)NCCCc2[nH]nc(-c3ccc(F)cc3)c2-c2ccncc2)cc1
71 | 70 |  | 73 |  | CCCNC(=O)NCCc1[nH]nc(-c2ccc(F)cc2)c1-c1ccncc1
72 | 48 |  | 35 |  | CC[C@H](NC(=O)Cn1nc(-c2ccc(F)cc2)c(-c2ccncc2)c1C)c1ccccc1
73 | 96 |  | 52 |  | O=C(NCc1[nH]nc(-c2ccc(F)cc2)c1-c1ccncc1)[C@@H]1CCCN1C(=O)C(F)(F)F
